Measured values reported in patent US12065416B2, “cGAS antagonist compounds” (IMMUNESENSOR THERAPEUTICS, INC., priority 2016, dated 2024).

biological target: T1, recombinant cGAS (aa147-522) (Homo sapiens, UniProt Q8N884); assay: In vitro assay for inhibition of cGAS activity (ATP consumption, Kinase Glo); type: biochemical; conditions: 37° C. 20 minutes, read-out: Activity (Inhibition of cGAS enzyme activity in vitro, IC50)
T1 construct: recombinant cGAS (aa147-522); His6-SUMO (N, cleaved yes); made in house; host or cells: E. coli BL21/pLys
Procedure: cDNA encoding full-length or amino acids 147-520 of human cGAS is inserted into a modified pET28a vector containing an in-frame His6-SUMO tag. The E. coli strain BL21/pLys harboring the plasmid is induced with 0.5 mM IPTG at 18° C. overnight. His6-SUMO tag was removed by a SUMO proease following purification of the HiS-SUMO-cGAS as described previously (Sun et al, 2013, Science 339, 786).
A40 μL mixture containing 1.5 ng/μL of recombinant cGAS (aa147-522) and serial dilutions of a test compound or DMSO was added to a 96-well plate and incubated at 37° C. for 20 minutes. At the end of reaction, 20 μL of Kinase Glo (Promega) was added and chemiluminescence measured with a luminometer. Inhibitory effect of a compound is evaluated by plotting percentage of ATP consumption against logarithm of compound concentrations. IC50 value was calculated using Graphpad (Sigma).

T1 sequence (Q8N884 147-522): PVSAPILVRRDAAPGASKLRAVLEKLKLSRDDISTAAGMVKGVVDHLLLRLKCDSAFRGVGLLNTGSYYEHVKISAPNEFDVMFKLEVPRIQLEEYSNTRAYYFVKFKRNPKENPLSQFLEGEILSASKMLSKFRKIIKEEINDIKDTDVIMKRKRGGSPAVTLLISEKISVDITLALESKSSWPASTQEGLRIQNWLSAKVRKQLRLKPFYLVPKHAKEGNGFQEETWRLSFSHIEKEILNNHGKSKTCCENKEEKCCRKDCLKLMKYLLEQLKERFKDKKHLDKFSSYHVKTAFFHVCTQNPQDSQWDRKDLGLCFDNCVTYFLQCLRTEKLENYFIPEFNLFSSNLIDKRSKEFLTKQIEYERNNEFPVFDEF

| IC50 [µM] | Structure (SMILES) |
| --- | --- |
| ≥ 10 | O=C1NC(=O)/C(=C/c2ccncc2)S1 [Ex2] |
| 0.5 to 10 | CN1C(=O)S/C(=C\c2cc(OCc3cncc4ccccc34)c(O)cc2Br)C1=O [Ex176] |
| 0.5 to 10 | CN1C(=O)S/C(=C\c2cc(OCC3CCN(C(=O)c4ccccn4)CC3)c(O)cc2Br)C1=O [Ex128] |
| ≤ 0.5 | CN1C(=O)S/C(=C\c2cc(OCc3cnc(-c4ccncc4)nc3)c(O)cc2Br)C1=O [Ex146] |
| 0.5 to 10 | CN1CCC(c2ncc(COc3cc(/C=C4\SC(=O)N(C)C4=O)c(Br)cc3O)cn2)CC1 [Ex209] |
| ≤ 0.5 | CCc1cc(/C=C2\Sc3ncccc3C2=O)c(Br)cc1O [Ex79] |
| ≥ 10 | CC(=O)c1cc(/C=C2\SC(=O)N(C)C2=O)c(Br)cc1Oc1cnc(N)s1 [ExB34] |
| ≥ 10 | CN1C(=O)S/C(=C\c2cc(Oc3cccc(O)c3N)c(O)cc2Br)C1=O [ExB12] |
| 0.5 to 10 | COc1cc(/C=C2\Sc3ncccc3C2=O)c(Br)cc1Oc1cnc(N)s1 [Ex74] |
| ≤ 0.5 | Nc1ncc(COc2cc(/C=C3\Sc4ncccc4C3=O)c(Br)cc2O)c(C(F)(F)F)n1 [Ex118] |
| 0.5 to 10 | COc1cc(/C=c2\sc3n(c2=O)CCN=3)c(Cl)cc1O [Ex41] |
| ≤ 0.5 | O=C1NC(=O)/C(=C2\CCCc3cnccc32)S1 [Ex5] |
| ≥ 10 | CSc1ncc(COc2cc(/C=C3\SC(=O)N(C)C3=O)c(Br)cc2O)c(SC)n1 [Ex100] |
| 0.5 to 10 | COc1cc(/C=C/C=C2\SC(=O)N(C)C2=O)c(Br)cc1O [Ex37] |
| 0.5 to 10 | CN1C(=O)S/C(=C\c2cc(CCc3cnc(N)nc3)c(O)cc2Br)C1=O [ExB41] |
| 0.5 to 10 | CN1C(=O)S/C(=C\c2cc(Oc3ccccc3)c(O)cc2Br)C1=O [Ex27] |

| IC50 [µM] | Structure (SMILES) |
| --- | --- |
| 0.5 to 10 | CC(Oc1cc(/C=C2\SC(=O)N(C)C2=O)c(Br)cc1O)c1cncnc1 (centres unmarked) [Ex103] |
| ≤ 0.5 | CN1C(=O)S/C(=C\c2cc(OCc3cnc(NC(=O)c4ccncc4)nc3)c(O)cc2Br)C1=O [Ex161] |
| 0.5 to 10 | CC(Oc1cc(/C=C2\SC(=O)N(C)C2=O)c(Br)cc1O)c1cnc(Cl)nc1 (centres unmarked) [Ex104] |
| ≤ 0.5 | CC(Oc1cc(/C=C2\SC(=O)N(C)C2=O)c(Br)cc1O)c1cnc(N)nc1 (centres unmarked) [Ex84] |
| ≥ 10 | CN1C(=O)S/C(=C\c2cc(Oc3cccc4cnccc34)c(O)cc2Br)C1=O [ExB25] |
| ≥ 10 | CC(C)c1cc(/C=C2\SC(=O)N(C)C2=O)c(Br)cc1O [ExB18] |
| 0.5 to 10 | COc1cc(/C=c2\sc3n(c2=O)CCCN=3)c(Cl)cc1O [Ex43] |
| ≥ 10 | CN1C(=O)S/C(=C\c2cc(O)c(O)cc2F)C1=O [Ex10] |
| 0.5 to 10 | CN1C(=O)S/C(=C\c2cc(OCC3(c4cnc(N)nc4)CC3)c(O)c(F)c2Br)C1=O [ExB6] |
| 0.5 to 10 | CN1C(=O)S/C(=C\c2cc(Oc3ccnc(N)c3)c(O)cc2Br)C1=O [Ex101] |
| 0.5 to 10 | CN1C(=O)S/C(=C\c2cc(OCc3cnc(Nc4ccccn4)nc3)c(O)cc2Br)C1=O [Ex83] |
| 0.5 to 10 | CN1C(=O)S/C(=C\c2cc(OCc3ccn(Cc4ccccc4)c(=O)c3)c(O)cc2Br)C1=O [Ex91] |
| ≥ 10 | CN1C(=O)S/C(=C\c2cc(Oc3ccc(-c4cccnc4)cc3)c(O)cc2Br)C1=O [ExB28] |
| 0.5 to 10 | CSc1ncc(COc2cc(/C=C3\SC(=O)N(C)C3=O)c(Br)cc2O)cn1 [Ex144] |
| 0.5 to 10 | CN1C(=O)S/C(=C\c2cc(OCc3cnc(C4CC4)nc3)c(O)cc2Br)C1=O [Ex94] |
| 0.5 to 10 | COc1cc(/C=C2\SC(=O)N(C)C2=O)c(Br)c(Cl)c1O [Ex34] |

Further lines, the molecule ahead of its results:

| Structure (SMILES) | IC50 [µM] |
| --- | --- |
| CN1C(=O)S/C(=C\c2cc(OCc3cnc(N4CCCCC4)nc3)c(O)cc2Br)C1=O [Ex164] | ≥ 10 |
| CN1C(=O)S/C(=C\c2cc(OCc3ccc(NC(=O)c4ccccn4)nc3)c(O)cc2Br)C1=O [Ex56] | 0.5 to 10 |
| CSc1ncncc1C(=O)C(C)Oc1cc(/C=C2\SC(=O)N(C)C2=O)c(Br)c(F)c1O (centres unmarked) [ExB36] | ≥ 10 |
| COc1cc(/C=C2\Sc3ncncc3C2=O)c(Br)cc1O [Ex51] | 0.5 to 10 |
| Nc1ncc(/C=C/c2cc(/C=C3\Sc4ncccc4C3=O)c(Br)cc2O)cn1 [ExB42] | ≤ 0.5 |
| COc1cc(/C=C2\SC(=O)N(C)C2=O)c(C)cc1O [Ex64] | 0.5 to 10 |
| CN1C(=O)S/C(=C\c2cc(OCc3cnc(NCc4ccccc4)nc3)c(O)cc2Br)C1=O [Ex154] | 0.5 to 10 |
| O=C1NC(=O)/C(=C/c2c[nH]cn2)S1 [Ex6] | ≥ 10 |
| CNc1ncc(COc2cc(/C=C3\SC(=O)N(C)C3=O)c(Br)c(F)c2O)cn1 [Ex187] | ≤ 0.5 |
| CN1C(=O)S/C(=C\c2cc(OCc3cnc(N(C)C)nc3)c(O)cc2Br)C1=O [Ex162] | ≥ 10 |
| CCC(Oc1cc(/C=C2\SC(=O)N(C)C2=O)c(Br)c(F)c1O)c1cnc(Cl)nc1 (centres unmarked) [ExB31] | 0.5 to 10 |
| Cc1ncc(COc2cc(/C=C3\SC(=O)N(C)C3=O)c(Br)cc2O)cn1 [Ex186] | 0.5 to 10 |
| CC(Oc1cc(/C=C2\Sc3ncccc3C2=O)c(Br)cc1O)c1cnc(Cl)nc1 (centres unmarked) [Ex121] | ≤ 0.5 |
| COc1cc(/C=C2\Sc3ncccc3C2=O)c(Br)c(Cl)c1O [Ex46] | ≤ 0.5 |
| CN1C(=O)S/C(=C\c2cc(OCc3cnc(Nc4ccccc4)nc3)c(O)cc2Br)C1=O [Ex158] | 0.5 to 10 |
| COc1cc2c(cc1O)CC/C2=C1/SC(=O)N(C)C1=O [Ex13] | ≥ 10 |
| CCC/N=C1/S/C(=C\c2cc(OC)c(O)cc2Br)C(=O)N1C [ExB24] | ≥ 10 |
| CN1C(=O)S/C(=C\c2cc(OCc3ccccn3)c(O)cc2Br)C1=O [Ex89] | 0.5 to 10 |

| Structure (SMILES) | IC50 [µM] |
| --- | --- |
| CN1C(=O)S/C(=C\c2cc(OC(F)(F)F)c(Oc3cnc(N)s3)cc2Br)C1=O [ExB33] | ≥ 10 |
| COCCNc1ncc(C(C)Oc2cc(/C=C3\SC(=O)N(C)C3=O)c(Br)cc2O)cn1 (centres unmarked) [Ex182] | 0.5 to 10 |
| COc1nc(S(C)(=O)=O)ncc1COc1cc(/C=C2\SC(=O)N(C)C2=O)c(Br)cc1O [Ex220] | 0.5 to 10 |
| CN1C(=O)S/C(=C\c2cc(Oc3ccncc3)c(O)cc2Br)C1=O [Ex230] | ≥ 10 |
| Cc1ncc(COc2cc(/C=C3\Sc4ncccc4C3=O)c(Br)cc2O)c(C)n1 [Ex120] | ≤ 0.5 |
| CC(Cc1cnc(N)nc1)Oc1cc(/C=C2\SC(=O)N(C)C2=O)c(Br)c(F)c1O (centres unmarked) [ExB9] | 0.5 to 10 |
| Cc1ncc(C(C)Oc2cc(/C=C3\SC(=O)N(C)C3=O)c(Br)cc2O)cn1 (centres unmarked) [Ex180] | 0.5 to 10 |
| O=C1NC(=O)/C(=C/c2ccncc2)S1 [Ex1] | ≤ 0.5 |
| CN1C(=O)S/C(=C\c2cc(OCC(F)(F)c3cnc(N)nc3)c(O)c(F)c2Br)C1=O [ExA20] | 0.5 to 10 |
| CN1C(=O)S/C(=C\c2cc(Oc3ccc(-c4ccccn4)cc3)c(O)cc2Br)C1=O [ExB26] | ≥ 10 |
| COc1cc(/C=C2\Sc3nccnc3C2=O)c(Br)cc1O [Ex50] | 0.5 to 10 |
| CN1C(=O)S/C(=C\c2cc(OCc3cnc(-c4cccnc4)nc3)c(O)cc2Br)C1=O [Ex96] | 0.5 to 10 |
| COc1nc([S+](C)[O-])ncc1COc1cc(/C=C2\SC(=O)N(C)C2=O)c(Br)cc1O (centres unmarked) [Ex212] | 0.5 to 10 |
| CN1C(=O)S/C(=C\c2cc(CC(F)(F)F)c(O)cc2Br)C1=O [ExB20] | 0.5 to 10 |
| CN1C(=O)S/C(=C\c2cc(OCc3ccc4ncccc4c3)c(O)cc2Br)C1=O [Ex174] | ≥ 10 |
| Cc1cnccc1/C=C1\SC(=O)NC1=O [Ex3] | ≤ 0.5 |
| COc1cc(/C=C2\SC(=O)N(C)C2=O)c(C(F)(F)F)cc1O [Ex31] | 0.5 to 10 |
| COc1cc(/C=C2\Sc3ncccc3C2=O)c(Br)c(Br)c1O [Ex47] | 0.5 to 10 |
